Measurements as given in ChEMBL document CHEMBL1909046, “DrugMatrix in vitro pharmacology data”.

Key:
[1] = DRUGMATRIX: Nicotinic Acetylcholine radioligand binding (ligand: [125I] Epibatidine); assay type: cell membranes, Membrane; details: imr-32; Not Active = under 50% inhibition at 10 µM
[2] = biological target: Histamine H2 receptor (Homo sapiens, UniProt P25021); assay type: cell membranes, CHO-K1, Membrane; details: cho-k1; note: in other assays of this panel Not Active means under 50% inhibition at 10 µM
Chain of Histamine H2 receptor (P25021 whole entry): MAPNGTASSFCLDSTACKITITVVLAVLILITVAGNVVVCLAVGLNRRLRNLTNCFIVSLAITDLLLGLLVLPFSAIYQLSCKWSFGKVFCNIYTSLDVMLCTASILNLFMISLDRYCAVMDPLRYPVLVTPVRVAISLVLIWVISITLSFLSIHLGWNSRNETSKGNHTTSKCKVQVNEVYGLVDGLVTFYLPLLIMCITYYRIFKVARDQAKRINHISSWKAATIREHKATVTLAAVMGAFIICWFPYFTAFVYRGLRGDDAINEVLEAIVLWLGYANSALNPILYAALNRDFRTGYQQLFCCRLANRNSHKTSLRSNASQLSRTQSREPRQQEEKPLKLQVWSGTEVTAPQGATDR

[3] = biological target: Melanocortin receptor 5 (Homo sapiens, UniProt P33032); assay type: cell membranes, HEK293, Membrane; note: in other assays of this panel Not Active means under 50% inhibition at 10 µM
Chain of Melanocortin receptor 5 (P33032 whole entry): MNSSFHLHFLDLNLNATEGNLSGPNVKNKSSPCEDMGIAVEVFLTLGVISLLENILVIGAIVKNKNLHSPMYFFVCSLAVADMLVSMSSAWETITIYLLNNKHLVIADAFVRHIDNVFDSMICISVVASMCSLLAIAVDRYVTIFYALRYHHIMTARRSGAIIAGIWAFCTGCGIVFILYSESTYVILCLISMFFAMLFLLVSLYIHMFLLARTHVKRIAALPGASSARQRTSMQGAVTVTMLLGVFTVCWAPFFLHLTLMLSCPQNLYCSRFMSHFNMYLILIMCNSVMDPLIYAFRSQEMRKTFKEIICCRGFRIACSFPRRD

[4] = biological target: T1, 3-hydroxy-3-methylglutaryl-coenzyme A reductase (Homo sapiens, UniProt P04035); design: species or system Escherichia coli;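 note: enzyme inhibition assay of HMG-CoA reductase using radiolabeled [14C]HMG-CoA as substrate; in other assays of this panel Not Active means under 50% inhibition at 10 µM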
T1 sequence (P04035 whole entry): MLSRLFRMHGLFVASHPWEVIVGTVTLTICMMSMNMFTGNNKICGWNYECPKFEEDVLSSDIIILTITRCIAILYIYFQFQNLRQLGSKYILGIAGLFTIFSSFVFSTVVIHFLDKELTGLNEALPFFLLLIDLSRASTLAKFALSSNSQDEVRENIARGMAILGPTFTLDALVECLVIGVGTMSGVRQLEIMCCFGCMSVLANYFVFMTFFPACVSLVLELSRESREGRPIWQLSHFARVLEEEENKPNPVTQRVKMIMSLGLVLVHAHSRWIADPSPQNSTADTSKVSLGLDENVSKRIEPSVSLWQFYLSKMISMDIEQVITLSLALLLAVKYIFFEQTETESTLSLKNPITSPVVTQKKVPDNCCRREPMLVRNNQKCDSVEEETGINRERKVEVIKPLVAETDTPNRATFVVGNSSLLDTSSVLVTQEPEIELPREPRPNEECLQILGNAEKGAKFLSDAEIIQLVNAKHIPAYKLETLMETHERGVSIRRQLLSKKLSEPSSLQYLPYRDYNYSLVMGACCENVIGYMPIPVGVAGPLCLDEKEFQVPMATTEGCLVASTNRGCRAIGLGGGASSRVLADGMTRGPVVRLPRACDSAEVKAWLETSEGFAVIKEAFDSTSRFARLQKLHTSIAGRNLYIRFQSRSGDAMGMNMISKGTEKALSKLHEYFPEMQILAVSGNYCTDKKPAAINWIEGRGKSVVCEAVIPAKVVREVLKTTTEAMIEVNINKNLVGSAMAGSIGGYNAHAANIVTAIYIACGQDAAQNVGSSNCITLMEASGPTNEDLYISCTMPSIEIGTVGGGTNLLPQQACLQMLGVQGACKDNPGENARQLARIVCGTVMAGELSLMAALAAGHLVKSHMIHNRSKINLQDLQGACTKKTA

[5] = biological target: T2, Cytochrome P450 2A6 (Homo sapiens, UniProt P11509); details: bti-tn-5b1-4; note: in other assays of this panel Not Active means under 50% inhibition at 10 µM
T2 sequence (P11509 whole entry): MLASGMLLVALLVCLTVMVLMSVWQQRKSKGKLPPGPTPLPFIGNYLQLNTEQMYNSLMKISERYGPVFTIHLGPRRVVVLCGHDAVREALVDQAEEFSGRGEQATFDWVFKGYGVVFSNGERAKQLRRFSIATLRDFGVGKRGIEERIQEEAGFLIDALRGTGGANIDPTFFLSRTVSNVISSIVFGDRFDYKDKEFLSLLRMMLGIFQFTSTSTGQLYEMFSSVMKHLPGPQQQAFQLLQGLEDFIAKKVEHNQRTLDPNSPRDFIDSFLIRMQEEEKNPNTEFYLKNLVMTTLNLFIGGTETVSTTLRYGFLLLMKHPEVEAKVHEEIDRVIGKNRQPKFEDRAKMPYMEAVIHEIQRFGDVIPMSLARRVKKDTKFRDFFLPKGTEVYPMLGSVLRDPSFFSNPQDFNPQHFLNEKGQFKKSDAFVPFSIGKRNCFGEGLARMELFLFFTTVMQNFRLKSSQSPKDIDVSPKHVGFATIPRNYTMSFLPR

[6] = biological target: Insulin receptor (Rattus norvegicus, UniProt P15127); assay type: cell membranes, Wistar, Liver, Membrane; note: in other assays of this panel Not Active means under 50% inhibition at 10 µM
Chain of Insulin receptor (P15127 27-759 limits assumed): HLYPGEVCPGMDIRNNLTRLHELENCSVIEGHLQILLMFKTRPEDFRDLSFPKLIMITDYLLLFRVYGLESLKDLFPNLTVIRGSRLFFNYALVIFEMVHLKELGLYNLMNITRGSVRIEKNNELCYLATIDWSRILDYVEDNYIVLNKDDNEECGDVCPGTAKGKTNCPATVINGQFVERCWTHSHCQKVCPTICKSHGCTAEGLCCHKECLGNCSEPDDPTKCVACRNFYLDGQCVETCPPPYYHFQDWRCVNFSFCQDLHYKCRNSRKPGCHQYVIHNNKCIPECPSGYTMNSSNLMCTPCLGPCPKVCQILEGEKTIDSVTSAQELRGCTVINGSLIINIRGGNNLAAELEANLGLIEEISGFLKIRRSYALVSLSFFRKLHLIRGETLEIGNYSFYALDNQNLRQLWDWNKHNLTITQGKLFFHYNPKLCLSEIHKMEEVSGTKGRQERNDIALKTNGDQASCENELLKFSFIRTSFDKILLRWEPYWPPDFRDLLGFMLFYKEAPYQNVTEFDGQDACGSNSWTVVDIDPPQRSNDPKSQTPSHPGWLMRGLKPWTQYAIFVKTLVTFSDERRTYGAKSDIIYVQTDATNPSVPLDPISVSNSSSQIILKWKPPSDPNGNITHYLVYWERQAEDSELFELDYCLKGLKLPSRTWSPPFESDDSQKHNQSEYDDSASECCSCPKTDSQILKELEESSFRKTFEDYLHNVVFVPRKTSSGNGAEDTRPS
Chain of Insulin receptor (P15127 764-1383 limits assumed): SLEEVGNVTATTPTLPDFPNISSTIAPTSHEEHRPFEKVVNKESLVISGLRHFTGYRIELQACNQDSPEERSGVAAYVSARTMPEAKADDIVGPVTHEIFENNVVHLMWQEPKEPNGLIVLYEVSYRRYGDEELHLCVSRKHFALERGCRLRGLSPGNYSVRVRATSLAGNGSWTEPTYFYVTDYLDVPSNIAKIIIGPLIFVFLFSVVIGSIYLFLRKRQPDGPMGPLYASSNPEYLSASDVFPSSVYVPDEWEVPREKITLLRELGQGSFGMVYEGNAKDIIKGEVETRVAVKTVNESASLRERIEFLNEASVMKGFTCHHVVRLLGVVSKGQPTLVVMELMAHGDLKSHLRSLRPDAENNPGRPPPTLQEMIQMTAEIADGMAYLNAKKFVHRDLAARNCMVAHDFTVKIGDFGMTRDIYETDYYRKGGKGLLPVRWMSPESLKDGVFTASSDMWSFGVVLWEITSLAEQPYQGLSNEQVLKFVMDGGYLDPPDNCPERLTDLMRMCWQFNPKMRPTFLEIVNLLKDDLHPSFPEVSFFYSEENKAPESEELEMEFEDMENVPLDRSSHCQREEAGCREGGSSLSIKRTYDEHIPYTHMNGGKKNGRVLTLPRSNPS

Row | Compound | IC50 [1] | Ki [1] | IC50 [2] | IC50 ([3]; hek293) | IC50 [4] | IC50 [5] | Ki [5] | IC50 [6] | Ki [2] | Ki ([3]; hek293) | Ki [4] | Ki [6] | IC50 ([4]; read-out: IC50) [µM] | IC50 ([3]; read-out: IC50) [µM] | Ki ([3]; read-out: Ki) [µM]
1 | O=c1cnn([C@@H]2O[C@H](CO)[C@@H](O)[C@H]2O)c(=O)[nH]1 [6-AZAURIDINE] | Not Active | Not Active | Not Active | Not Active | Not Active | Not Active | Not Active | Not Active | – | – | – | – | – | – | –
2 | COC(=O)CCc1ccc(OCC(O)CNC(C)C)cc1 (stereo not drawn) [ESMOLOL] | Not Active | Not Active | Not Active | Not Active | Not Active | Not Active | Not Active | Not Active | – | – | – | – | – | – | –
3 | C[C@@H]1O[C@@H](O[C@@H]2C=C3CC[C@@H]4[C@H](CC[C@]5(C)[C@@H](c6ccc(=O)oc6)CC[C@]45O)[C@@]3(C)CC2)[C@H](O)[C@H](O)[C@H]1O [PROSCILLARIDIN] | Not Active | Not Active | Not Active | Not Active | Not Active | Not Active | Not Active | Not Active | – | – | – | – | – | – | –
4 | NYSTATIN | Not Active | Not Active | Not Active | Not Active | Not Active | Not Active | Not Active | Not Active | Not Active | Not Active | Not Active | Not Active | – | – | –
5 | COc1cc(N)c(Cl)cc1C(=O)NC1CCN(CCCOc2ccc(F)cc2)CC1OC (stereo not drawn) [CISAPRIDE] | Not Active | Not Active | Not Active | Not Active | – | Not Active | Not Active | Not Active | – | – | – | – | 3.37 | – | –
6 | C[C@@H]1C[C@H]2[C@@H]3CCC4=CC(=O)C=C[C@]4(C)[C@@]3(F)[C@@H](O)C[C@]2(C)[C@@]1(O)C(=O)CO [DEXAMETHASONE] | Not Active | Not Active | Not Active | Not Active | Not Active | Not Active | Not Active | Not Active | – | – | – | – | – | – | –
7 | O=C(c1ccccc1C(F)(F)F)N1CCC(Cc2ccccc2)CC1 | Not Active | Not Active | Not Active | Not Active | Not Active | Not Active | Not Active | Not Active | – | – | – | – | – | – | –
8 | Brc1c(NC2=NCCN2)ccc2nccnc12 [BRIMONIDINE] | Not Active | Not Active | Not Active | Not Active | Not Active | Not Active | Not Active | Not Active | – | – | – | – | – | – | –
9 | CC1(C)S[C@@H]2[C@H](NC(=O)[C@H](N)c3ccccc3)C(=O)N2[C@H]1C(=O)O [AMPICILLIN] | Not Active | Not Active | Not Active | Not Active | Not Active | Not Active | Not Active | Not Active | – | – | – | – | – | – | –
10 | C[n+]1ccccc1/C=N/O.[Cl-] [PRALIDOXIME CHLORIDE] | Not Active | Not Active | Not Active | Not Active | Not Active | Not Active | Not Active | Not Active | – | – | – | – | – | – | –
11 | COc1cc2nc(N3CCN(C(=O)c4ccco4)CC3)nc(N)c2cc1OC [PRAZOSIN] | Not Active | Not Active | Not Active | Not Active | Not Active | Not Active | Not Active | Not Active | – | – | – | – | – | – | –
12 | Cc1c(OCC(F)(F)F)ccnc1C[S+]([O-])c1nc2ccccc2[nH]1 (stereo not drawn) [LANSOPRAZOLE] | Not Active | Not Active | Not Active | Not Active | Not Active | Not Active | Not Active | Not Active | – | – | – | – | – | – | –
13 | CN1[C@@H]2CC[C@H]1C[C@@H](OC(=O)C(CO)c1ccccc1)C2 (stereo partly drawn) [ATROPINE] | Not Active | Not Active | Not Active | Not Active | Not Active | Not Active | Not Active | Not Active | – | – | – | – | – | – | –
14 | COc1ccc(C2C(=O)c3ccccc3C2=O)cc1 [ANISINDIONE] | Not Active | Not Active | Not Active | Not Active | Not Active | Not Active | Not Active | Not Active | – | – | – | – | – | – | –
15 | COC(=O)Nc1nc2ccc([S+]([O-])c3ccccc3)cc2[nH]1 (stereo not drawn) [OXFENDAZOLE] | Not Active | Not Active | Not Active | Not Active | Not Active | Not Active | Not Active | Not Active | – | – | – | – | – | – | –
16 | CC(C(=O)O)c1ccc2oc(-c3ccc(Cl)cc3)nc2c1 (stereo not drawn) [BENOXAPROFEN] | Not Active | Not Active | Not Active | Not Active | Not Active | Not Active | Not Active | Not Active | – | – | – | – | – | – | –
17 | Cc1cc2c(OCC(CNC(C)(C)C)OC(=O)c3ccccc3)cccc2[nH]1 (stereo not drawn) [BOPINDOLOL] | Not Active | Not Active | Not Active | Not Active | Not Active | Not Active | Not Active | Not Active | – | – | – | – | – | – | –
18 | Nc1ccn([C@@H]2O[C@H](CO)[C@@H](O)C2(F)F)c(=O)n1 [GEMCITABINE] | Not Active | Not Active | Not Active | Not Active | Not Active | Not Active | Not Active | Not Active | – | – | – | – | – | – | –
19 | COc1ccc2[nH]cc(CCNC(C)=O)c2c1 [MELATONIN] | Not Active | Not Active | Not Active | Not Active | Not Active | Not Active | Not Active | Not Active | – | – | – | – | – | – | –
20 | GADOPENTETATE DIMEGLUMINE | Not Active | Not Active | Not Active | Not Active | Not Active | Not Active | Not Active | Not Active | Not Active | Not Active | Not Active | Not Active | – | – | –
21 | C#CC1(O)CC[C@H]2[C@@H]3CCC4=CC(=O)CC[C@@H]4[C@H]3CC[C@@]21CC (stereo partly drawn) [NORGESTREL] | Not Active | Not Active | Not Active | Not Active | Not Active | Not Active | Not Active | Not Active | – | – | – | – | – | – | –
22 | C[n+]1ccc(-c2cc[n+](C)cc2)cc1.[Cl-].[Cl-] [PARAQUAT DICHLORIDE] | Not Active | Not Active | Not Active | Not Active | Not Active | Not Active | Not Active | Not Active | – | – | – | – | – | – | –
23 | C[C@@H]1CC[C@@]2(OC1)O[C@H]1[C@@H](O)[C@H]3[C@@H]4CC[C@H]5C[C@@H](O[C@@H]6O[C@H](CO)[C@H](O[C@@H]7O[C@H](CO)C(O)[C@H](O[C@@H]8OC[C@@H](O)[C@H](O)[C@H]8O)[C@H]7O[C@@H]7O[C@H](CO)[C@H](O)[C@H](O[C@@H]8O[C@H](CO)[C@@H](O)[C@H](O)[C@H]8O)[C@H]7O)[C@H](O)[C@H]6O)[C@H](O)C[C@]5(C)[C@H]4CC[C@]3(C)[C@H]1[C@@H]2C (stereo partly drawn) [DIGITONIN] | Not Active | Not Active | Not Active | – | Not Active | Not Active | Not Active | Not Active | – | – | – | – | – | 3.88 | 3.64
